Experimental data reported in ChEMBL document CHEMBL5331084, “Structure-based lead optimization of peptide-based vinyl methyl ketones as SARS-CoV-2 main protease inhibitors” (Eur J Med Chem, 2023).
Calls of active or inactive are those of the source. The calls are words filed in the database; no cut-off is given here.

How the values were obtained:
[1] = target: Cathepsin B (Homo sapiens, UniProt P07858); assay: Inhibition of human Cathepsin B using Cbz-Phe-Arg-7-amino-4-methylcoumarin as substrate assessed as inhibition constant measured for 10 mins by fluorescence assay
[2] = target: Genome polyprotein (dengue virus type 2) (UniProt P29990); assay: Inhibition of Dengue virus NS2B-NS3 protease Boc-GRR-AMC as substrate at 100 uM measured for 10 mins by fluorescence assay
[3] = target: T1, Procathepsin L (Homo sapiens, UniProt P07711); assay: Inhibition of human Cathepsin L using Cbz-Phe-Arg-AMC as substrate assessed as inhibition constant measured for 10 mins by fluorescence assay
Target sequence in this assay (P07711 whole entry): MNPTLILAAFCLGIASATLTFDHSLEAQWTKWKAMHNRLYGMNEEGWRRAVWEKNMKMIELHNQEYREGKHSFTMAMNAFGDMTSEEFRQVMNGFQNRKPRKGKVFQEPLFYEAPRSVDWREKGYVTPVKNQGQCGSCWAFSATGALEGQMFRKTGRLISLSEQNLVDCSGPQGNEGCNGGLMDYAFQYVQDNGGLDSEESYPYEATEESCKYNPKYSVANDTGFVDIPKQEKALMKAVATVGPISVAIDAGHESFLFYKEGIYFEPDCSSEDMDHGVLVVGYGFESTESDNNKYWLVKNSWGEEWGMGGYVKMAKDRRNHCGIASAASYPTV

[4] = target: T1, Procathepsin L; assay: Covalent irreversible inhibition of human Cathepsin L using Cbz-Phe-Arg-AMC as substrate assessed as reduction in enzyme recovery at 5 fold IC50 preincubated for 60 mins followed by dilution to 1 fold IC50 and substrate addition by fluorescence based assay
Target sequence in this assay (P07711 114-333 limits assumed): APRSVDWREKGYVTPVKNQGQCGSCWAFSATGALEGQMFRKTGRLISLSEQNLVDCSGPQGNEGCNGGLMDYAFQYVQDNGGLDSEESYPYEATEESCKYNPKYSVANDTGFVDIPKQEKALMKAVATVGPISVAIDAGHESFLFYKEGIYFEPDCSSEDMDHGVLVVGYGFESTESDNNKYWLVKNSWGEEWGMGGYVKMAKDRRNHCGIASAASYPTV

[5] = system: Huh-7; type: toxicity, cell-based; details: human, huh-7, 24 h
[6] = target: Replicase polyprotein 1ab (Severe acute respiratory syndrome coronavirus 2, UniProt P0DTD1); assay: Inhibition of SARS-CoV-2 MPro using Dabcyl-KTSAVLQSGFRKME-Edans as substrate assessed as inhibition constant measured for 10 mins by FRET assay
[7] = target: Replicase polyprotein 1ab (Severe acute respiratory syndrome coronavirus 2) (UniProt P0DTD1); assay: Inhibition of SARS-CoV-2 PLpro using Z-RLRGG-AMC acetate as substrate at 100 uM measured for 10 mins by fluorescence assay
[8] = target: Replicase polyprotein 1ab (Severe acute respiratory syndrome coronavirus 2) (UniProt P0DTD1); assay: Covalent irreversible inhibition of SARS-CoV-2 MPro using Dabcyl-KTSAVLQSGFRKME-Edans as substrate assessed as reduction in enzyme recovery at 5 fold IC50 preincubated for 60 mins followed by dilution to 1 fold IC50 and substrate addition by fluorescence based assay
[9] = target: Replicase polyprotein 1ab (Severe acute respiratory syndrome coronavirus 2) (UniProt P0DTD1); assay: Covalent irreversible inhibition of SARS-CoV-2 MPro using Dabcyl-KTSAVLQSGFRKME-Edans as substrate assessed as reduction in enzyme recovery at 10 fold IC50 preincubated for 60 mins followed by dialysis for 25 hrs further incubated with substrate and measured over 10 mins by fluorescence based assay; details: time 1570.0 min

## CCCC[C@H](NC(=O)OCc1ccccc1)C(=O)N[C@H](/C=C/C(C)=O)C[C@@H]1CCNC1=O
[1]
  Ki: 11100 nM
[2]
  inhibition: inactive
[3]
  Ki: 1920 nM
[4]
  inhibition: Active
[5]
  CC50: 60900 nM
[6]
  Ki: 260 nM
[7]
  inhibition: inactive
[8]
  inhibition: Active

## CCC[C@H](NC(=O)OCc1ccccc1)C(=O)N[C@H](/C=C/C(C)=O)C[C@@H]1CCNC1=O
[6]
  Ki: 1770 nM

## CC(=O)/C=C/[C@H](C[C@@H]1CCNC1=O)NC(=O)[C@H](CC1CCCCC1)NC(=O)OCc1ccccc1
[1]
  Ki: 14400 nM
[9]
  inhibition: Active
[2]
  inhibition: inactive
[3]
  Ki: 252 nM
[4]
  inhibition: Active
[5]
  CC50: 14500 nM
[6]
  Ki: 184 nM
[7]
  inhibition: inactive
[8]
  inhibition: Active

## CC(=O)/C=C/[C@H](C[C@@H]1CCNC1=O)NC(=O)[C@H](CC(C)C)NC(=O)OCc1ccccc1
[6]
  Ki: 386 nM

## CC(=O)/C=C/[C@H](C[C@@H]1CCNC1=O)NC(=O)[C@H](CC(C)(C)C)NC(=O)OCc1ccccc1
[6]
  Ki: 416 nM

## CC(=O)/C=C/[C@H](C[C@@H]1CCNC1=O)NC(=O)[C@H](CC1CC1)NC(=O)OCc1ccccc1
[1]
  Ki: 7880 nM
[9]
  inhibition: Active
[2]
  inhibition: inactive
[3]
  Ki: 3380 nM
[4]
  inhibition: Active
[5]
  CC50: 100000 nM
[6]
  Ki: 252 nM
[7]
  inhibition: inactive
[8]
  inhibition: Active
